Experimental data taken from ChEMBL document CHEMBL5042500 (J Med Chem, 2022).
In brackets after ≈: the same amount, converted by molar mass. Activity calls are given as the source filed them. The rule behind the calls is not given here.

Tests used:
[1] = Effect on chondrocyte hypertrophic differentiation mouse ATDC-5 cells assessed as inhibition of […] gene expression incubated for 2 weeks followed by compound added and every 3 days medium is changed measured after 2 weeks by RT-qPCR analysis; format: functional, cell-based
[2] = Intrinsic clearance in human hepatocytes assessed per 10^-6 cells; format: ADME, cell-based, Hepatocyte
[3] = Metabolic stability in Sprague-Dawley rat liver microsomes assessed as compound degradation in presence of NADPH measured after 20 mins; format: ADME, Microsome; conditions: read-out: Drug degradation
[4] = Permeability in human Caco2 cells at 20 uM incubated for 120 mins by ESI-MS/MS analysis; format: ADME, cell-based; conditions: Caco-2, read-out: permeability
[5] = Metabolic stability in human liver microsomes assessed as compound degradation in presence of NADPH measured after 20 mins; format: ADME, Microsome; conditions: read-out: Drug degradation
[6] = Aqueous solubility of the compound at pH 7.4; format: physicochemical
[7] = Chemical stability of the compound at pH 7.4 measured after 24 hrs; format: physicochemical; conditions: buffer, read-out: Stability
Cytochrome P450 3A4 [8] = target: T1, Cytochrome P450 3A4 (Homo sapiens, UniProt P08684); assay: Inhibition of CYP3A4 in human liver microsomes using testosterone as substrate incubated for 30 mins by LC-MS/MS analysis; format: ADME
[9] = Solubility of the compound in FeSSIF at pH 5.0; format: physicochemical
Salmonella typhimurium [10] = assay: Mutagenicity in Salmonella typhimurium […] by ames test; format: toxicity, organism-based; conditions: salmonella enterica subsp. enterica serovar typhimurium
Cytochrome P450 3A4 [11] = target: T1, Cytochrome P450 3A4; assay: Inhibition of CYP3A4 in human liver microsomes using midazolam as substrate incubated for 10 mins by LC-MS/MS analysis; format: ADME
hERG (KCNH2) [12] = target: T2, hERG (KCNH2) (Homo sapiens, UniProt Q12809); assay: Inhibition of human ERG at 1 uM relative to control; format: toxicity
hERG (KCNH2) [13] = target: T2, hERG (KCNH2); assay: Inhibition of human ERG at 10 uM; format: toxicity
[14] = target: T3, Serine/threonine-protein kinase Sgk1 (Homo sapiens, UniProt O00141); assay: Inhibition of recombinant human SGK1 expressed in baculovirus expression system using 5-carboxyfluorescein -RPRAATF-NH2 as substrate preincubated for 30 mins followed by substrate addition in presence of 500 uM ATP and measured after 60 mins by microfluidics assay
T3 sequence (O00141 whole entry): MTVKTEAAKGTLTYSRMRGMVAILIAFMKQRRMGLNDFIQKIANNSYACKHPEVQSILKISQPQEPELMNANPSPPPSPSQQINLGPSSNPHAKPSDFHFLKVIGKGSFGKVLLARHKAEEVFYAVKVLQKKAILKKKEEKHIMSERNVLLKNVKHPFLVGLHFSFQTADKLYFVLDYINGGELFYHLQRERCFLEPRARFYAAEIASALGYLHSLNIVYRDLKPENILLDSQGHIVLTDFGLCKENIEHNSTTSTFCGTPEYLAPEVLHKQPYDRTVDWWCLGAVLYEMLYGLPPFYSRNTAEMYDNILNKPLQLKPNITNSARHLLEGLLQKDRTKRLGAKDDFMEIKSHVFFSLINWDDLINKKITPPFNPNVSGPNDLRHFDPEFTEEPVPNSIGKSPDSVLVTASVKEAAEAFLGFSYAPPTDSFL

CYP3A4 = CYP3A4 (Homo sapiens, UniProt P08684); assay: Inhibition of CYP3A4 in human liver microsomes by measuring maximum efficacy; format: ADME
Salmonella typhimurium [15] = assay: Mutagenicity in Salmonella typhimurium […] in presence of S9 fraction by ames test; format: toxicity, organism-based; conditions: salmonella enterica subsp. enterica serovar typhimurium
[16] = Metabolic stability in CD1 mouse liver microsomes assessed as compound degradation in presence of NADPH measured after 20 mins; format: ADME, Microsome; conditions: read-out: Drug degradation
[17] = target: T3, Serine/threonine-protein kinase Sgk1; assay: Inhibition of recombinant human SGK1 expressed in baculovirus expression system using 5-carboxyfluorescein -RPRAATF-NH2 as substrate preincubated for 30 mins followed by substrate addition in presence of 10 uM ATP and measured after 60 mins by microfluidics assay
[18] = Distribution coefficient, logD of compound at pH 7.4 by chromatographic analysis; format: physicochemical; conditions: octanol/water
Femur [19] = assay: (§1) Induction of chondrogenesis in femoral head cartilage isolated from C57BL/6 mouse model of osteoarthritis assessed as reduction in intensity of collagen type x staining at 2 uM incubated for 2 weeks in hypertrophic condition and twice for week medium is changed by immunohistochemical staining based analysis; format: functional, tissue-based
Femur [20] = assay: Induction of chondrogenesis in femoral head cartilage isolated from C57BL/6 mouse model of osteoarthritis assessed as reduction in intensity of collagen type x staining incubated for 2 weeks in hypertrophic condition and twice for week medium is changed by immunohistochemical staining based analysis; format: functional, tissue-based
Femur [21] = assay: as §1, with “at 10” for “at 2”; format: functional, tissue-based
[22] = target: Ribosomal protein S6 kinase alpha-1 (Homo sapiens) (UniProt Q15418); assay: Inhibition of RSK1 kinase (unknown origin) at 0.1 uM
[23] = Inhibition of rat SGK1 in presence 500 uM presence of ATP
[24] = target: T4, Serine/threonine-protein kinase Sgk1 (Mus musculus, UniProt Q9WVC6); assay: Inhibition of mouse SGK1 in presence 500 uM presence of ATP
T4 sequence (Q9WVC6 whole entry): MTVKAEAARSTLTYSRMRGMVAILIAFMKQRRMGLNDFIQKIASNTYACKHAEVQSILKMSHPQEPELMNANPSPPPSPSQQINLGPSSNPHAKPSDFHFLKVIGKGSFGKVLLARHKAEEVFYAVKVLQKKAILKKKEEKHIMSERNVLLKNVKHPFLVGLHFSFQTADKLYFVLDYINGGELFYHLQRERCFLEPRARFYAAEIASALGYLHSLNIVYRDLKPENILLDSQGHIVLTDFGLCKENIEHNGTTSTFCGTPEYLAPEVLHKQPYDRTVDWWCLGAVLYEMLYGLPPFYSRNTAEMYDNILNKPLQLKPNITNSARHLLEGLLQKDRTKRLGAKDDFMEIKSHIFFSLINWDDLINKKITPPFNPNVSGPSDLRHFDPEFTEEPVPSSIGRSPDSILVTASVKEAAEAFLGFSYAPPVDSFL

T2 sequence (Q12809 whole entry): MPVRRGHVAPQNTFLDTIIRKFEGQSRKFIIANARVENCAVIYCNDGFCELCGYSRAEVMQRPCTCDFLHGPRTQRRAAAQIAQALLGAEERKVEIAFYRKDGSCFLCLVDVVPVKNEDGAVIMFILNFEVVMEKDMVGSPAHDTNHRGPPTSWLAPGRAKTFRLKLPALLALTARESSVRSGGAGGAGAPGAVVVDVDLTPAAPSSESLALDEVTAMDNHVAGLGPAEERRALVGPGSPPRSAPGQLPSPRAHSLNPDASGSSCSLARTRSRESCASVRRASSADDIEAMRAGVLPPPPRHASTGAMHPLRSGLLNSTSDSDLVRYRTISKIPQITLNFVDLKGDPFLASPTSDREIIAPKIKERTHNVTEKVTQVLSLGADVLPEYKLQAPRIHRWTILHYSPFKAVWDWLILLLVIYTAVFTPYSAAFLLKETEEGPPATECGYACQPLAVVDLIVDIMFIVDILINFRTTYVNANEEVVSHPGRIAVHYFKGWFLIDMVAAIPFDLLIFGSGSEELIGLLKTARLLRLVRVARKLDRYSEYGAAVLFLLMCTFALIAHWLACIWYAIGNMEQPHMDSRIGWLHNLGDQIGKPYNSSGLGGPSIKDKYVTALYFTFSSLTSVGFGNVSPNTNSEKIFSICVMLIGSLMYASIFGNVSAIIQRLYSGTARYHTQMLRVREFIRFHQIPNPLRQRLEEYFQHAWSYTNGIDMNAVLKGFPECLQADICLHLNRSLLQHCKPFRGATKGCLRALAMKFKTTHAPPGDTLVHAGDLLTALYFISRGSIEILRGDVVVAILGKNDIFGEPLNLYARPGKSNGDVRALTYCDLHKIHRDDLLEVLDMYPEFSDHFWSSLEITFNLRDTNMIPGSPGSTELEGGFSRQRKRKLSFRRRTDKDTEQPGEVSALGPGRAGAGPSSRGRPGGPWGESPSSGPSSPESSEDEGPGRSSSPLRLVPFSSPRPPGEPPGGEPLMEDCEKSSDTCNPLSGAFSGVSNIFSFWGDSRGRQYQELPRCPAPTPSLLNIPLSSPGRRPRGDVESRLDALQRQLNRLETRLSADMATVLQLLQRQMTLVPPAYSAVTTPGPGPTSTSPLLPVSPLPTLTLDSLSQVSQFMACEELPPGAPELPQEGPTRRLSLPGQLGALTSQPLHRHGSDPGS
T1 sequence (P08684 whole entry): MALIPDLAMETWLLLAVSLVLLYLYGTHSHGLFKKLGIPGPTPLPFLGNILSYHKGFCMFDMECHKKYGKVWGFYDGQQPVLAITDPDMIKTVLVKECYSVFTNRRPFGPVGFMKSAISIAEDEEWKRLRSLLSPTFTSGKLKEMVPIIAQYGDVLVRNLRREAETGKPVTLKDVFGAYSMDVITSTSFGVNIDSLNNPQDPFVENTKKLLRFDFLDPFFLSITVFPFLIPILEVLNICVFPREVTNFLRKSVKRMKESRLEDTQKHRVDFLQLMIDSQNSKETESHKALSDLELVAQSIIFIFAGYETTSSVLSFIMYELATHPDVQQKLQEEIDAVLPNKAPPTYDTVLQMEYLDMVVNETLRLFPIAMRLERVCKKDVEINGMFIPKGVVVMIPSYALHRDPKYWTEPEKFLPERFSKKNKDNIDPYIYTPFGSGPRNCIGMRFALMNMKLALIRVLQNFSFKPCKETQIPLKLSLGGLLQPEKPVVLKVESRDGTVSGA
Chain of CYP3A4 (P08684 whole entry): as above
Chain of Ribosomal protein S6 kinase alpha-1 (Homo sapiens) (Q15418 whole entry): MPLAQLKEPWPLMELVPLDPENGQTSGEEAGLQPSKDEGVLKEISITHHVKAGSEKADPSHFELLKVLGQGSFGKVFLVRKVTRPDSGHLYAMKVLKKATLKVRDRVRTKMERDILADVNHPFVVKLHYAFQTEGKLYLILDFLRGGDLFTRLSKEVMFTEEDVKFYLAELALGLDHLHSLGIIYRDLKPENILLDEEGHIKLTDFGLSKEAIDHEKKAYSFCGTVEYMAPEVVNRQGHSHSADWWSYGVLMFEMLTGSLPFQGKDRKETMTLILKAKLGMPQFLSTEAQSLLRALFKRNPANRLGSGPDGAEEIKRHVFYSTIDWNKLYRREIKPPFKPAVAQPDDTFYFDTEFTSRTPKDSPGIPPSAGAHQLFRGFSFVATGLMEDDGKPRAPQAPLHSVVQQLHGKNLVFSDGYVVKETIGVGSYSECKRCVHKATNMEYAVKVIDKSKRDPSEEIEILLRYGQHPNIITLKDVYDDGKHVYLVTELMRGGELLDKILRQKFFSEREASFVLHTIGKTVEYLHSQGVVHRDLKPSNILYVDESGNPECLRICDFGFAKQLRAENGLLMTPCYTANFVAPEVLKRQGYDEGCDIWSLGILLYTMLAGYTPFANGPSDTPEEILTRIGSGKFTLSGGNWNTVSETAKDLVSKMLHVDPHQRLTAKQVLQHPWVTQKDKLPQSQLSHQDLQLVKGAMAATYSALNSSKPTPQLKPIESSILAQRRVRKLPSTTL

| Structure (SMILES) | IC50 [1] [µM] | metabolised at 20 min [3] [%] | Papp at 2 h, 20 µM [4] [×10⁻⁶ cm/s] | metabolised at 20 min [5] [%] | solubility [6] [µg/mL] | remaining at 24 h [7] [%] | IC50 (Cytochrome P450 3A4 [8]) [µM] | Activity (Salmonella typhimurium [10]) | IC50 (Cytochrome P450 3A4 [11]) [µM] | inhibition at 1 µM (hERG (KCNH2) [12]) [%] | inhibition at 10 µM (hERG (KCNH2) [13]) [%] | Emax (CYP3A4) [%] | Activity (Salmonella typhimurium [15]) | metabolised at 20 min [16] [%] | chromatographic logD [18] | other results |
| --- | --- | --- | --- | --- | --- | --- | --- | --- | --- | --- | --- | --- | --- | --- | --- | --- |
| Cc1n[nH]c2nc(-c3ccc(NS(=O)(=O)c4cc(Cl)ccc4F)cc3)nc(OC3CCN(C4CC4)CC3)c12 | 0.007 | 4 | 5 | 19 | < 1 | 100 | > 30 | Non-Toxic | > 30 | 24 | 5 | 3 | Non-Toxic | 11 | 3.4 | CLH [2]: 0.02 mL/h; solubility [9]: 17 µg/mL (≈ 30.5 µM); IC50 [14]: 0.004 µM; IC50 [17]: 0.002 µM |
| O=S(=O)(Nc1ccc(-c2nc(O[C@H]3CC[C@H](O)CC3)c3cn[nH]c3n2)cc1)c1cc(Cl)ccc1F | 0.05 | 7 | 8.6 | 13 | 4 (≈ 7.72 µM) | 100 | > 3 | Non-Toxic | > 3 | 0 | 65 | 13 | Non-Toxic | 6 | 2.8 | Activity (Femur [19]): inactive; Activity (Femur [20]): Active; Activity (Femur [21]): Active; inhibition [22]: 57%; IC50 [23]: 0.358 µM; IC50 [24]: 0.253 µM |
